Measurements published in publication PMC9727064, “Performance assessment and economic analysis of a human Liver-Chip for predictive toxicology” (Communications Medicine, 2022).
Where two headings read alike, the source gives them in different places.

How the values were obtained:
[1] = cited from earlier work
human Liver-Chip = assay: Liver-Chip DILI prediction: minimum toxic concentration and margin of safety (MOS)-like figure; settings: for Chip MOS both donors / Chip MOS donor 1 / Chip MOS donor 2: free IC50 concentration in the assay divided by total concentration of drug in human plasma at Cmax; for Liver-Chip toxicity determination, MOS-like figure against threshold value of 50: not corrected for protein binding, donors one and two;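 on Chip MOS both donors: Toxic concentration is the lowest across albumin IC50 and ALT and morphology endpoints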;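 on Chip MOS donor 1: Toxic concentration is the lowest across albumin IC50 and ALT and morphology endpoints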;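 on Chip MOS donor 2: Toxic concentration is the lowest across albumin IC50 and ALT and morphology endpoints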
Text: Because the fundamental principles of drug action dictate that free (unbound) drug concentrations drive drug effects, we explored an alternative methodology for calculating the MOS-like values by accounting for protein binding using a previously reported approach. Accordingly, we reanalyzed the findings for the 27 drugs in our study by accounting for protein binding.

[2] = test system: 3D spheroid cultures of primary human hepatocytes; settings: cited from earlier work; for Spheroid MOS: 3D hepatic spheroids, previously published data; for Spheroid false negative: Yes/No, also No for drugs not tested in spheroid
[3] = test system: human Liver-Chip (primary human hepatocytes); assay: Liver-Chip albumin production in top channel effluent (ELISA); assay type: cell-based
Text: (§1) Cycles 1 to 4 tested 6–8 concentrations in duplicate for each of 10–13 drugs. To determine which sampling strategy was optimal for cycles 1 to 4 (16 doses × 1 replicate, 8 × 2, 5 × 3, or 4 × 4), we generated three different “dose-response” synthetic datasets, each distorted by different noise levels (low, medium, or high). For each of these datasets, we performed curve-fitting analyses and calculated the Root Mean Square Error between the “true” and estimated IC50 parameter. […] Some drugs were also repeated across cycles (on different donors or at different concentrations) to ensure experimental robustness. However, to replicate a more typical study design likely to be carried out by scientists in the pharmaceutical industry, we created cycle 5 with 6 drugs, where each was tested in 4 concentrations in triplicate. For each cycle, chips were dosed with drug over 8 days (referred to as Day 0 through Day 7).
(§2) The drug dosing concentrations were determined from the unbound human Cmax of each drug. First, the expected fraction of drug unbound in media with 2% FBS was extrapolated from plasma binding data for each drug. Dosing concentrations were then back calculated such that the unbound fraction in media would reflect relevant multiples of unbound human Cmax (Supplementary Data 1).
(§3) On the first dosing day (Day 0), all chips were imaged using the ECHO microscope. Five hundred microliters of effluent was collected from all four reservoirs of the pod and placed in a labeled 96-well plate. After collection, all the remaining media was carefully aspirated before dosing with 3.8 mL of corresponding dosing solution. Dosing occurred on study days 0, 2, and 4 for chips flowing at 30 µL/h, and on days 0, 1, 2, 3, 4, 5, and 6 for chips flowing at 150 µL/h. Effluent collection occurred on days 1, 3, and 7.
(§4) Top channel outlet effluents were analyzed to quantify albumin and alanine transaminase (ALT) levels on days 1, 3, and 7 using sandwich ELISA kits (Abcam, Albumin ab179887, ALT ab234578) according to vendor-provided protocols. Frozen (−80 °C) effluent samples were thawed overnight at 4 °C prior to assay. The Hamilton Vantage liquid handling platform was used to manage effluent dilutions (1:500 for albumin, neat for ALT), preparation of standard curves, and addition of antibody cocktail. Absorbance at 450 nm was measured using the SynergyNeo Microplate Reader (BioTek).
All statistical analyses were conducted in R[21] (version 4.1.2) and figures were produced using the R package ggplot2[22] (version 3.3.5). The dose-response analysis (Fig. 4) was carried out using the popular drc R package developed by Ritz et al.[23] using the generalized log-logistic dose-response model. The error bars in Figs. 3 and 4, correspond to the standard errors of the mean. The circles in Fig. 3 correspond to the samples used to calculate the corresponding statistics. The analysis of significance in Fig. 3 was performed using paired t-test across different days (same donor) and unpaired t-test across different donors (same day). In Fig. 3 the number of samples used were n = 3 for donor two, and n = 4 for donor three. For both donors, the number of the freshly thawed hepatocyte samples used to estimate the corresponding log2(Fold Change) were n = 4. Finally, the analysis of significance in Fig. 3 was performed using paired t-test.

[4] = cited from earlier work; remark: listed apart in the source
[5] = test system: human Liver-Chip (primary human hepatocytes); assay: Liver-Chip alanine transaminase (ALT) release in top channel effluent (ELISA); assay type: cell-based
Text: as §1, §2, §3, §4

[6] = test system: clinical drug-induced liver injury; settings: clinical DILI severity category 1 to 5; cited from earlier work
[7] = expanded drug list, lowest multiplier causing a 50% reduction in albumin production
[8] = expanded drug list, lowest concentration causing an increase in ALT release
[9] = concentration causing a 50% reduction in albumin production
[10] = lowest concentration causing an increase in ALT protein

With `CCOC(=O)CN[C@@H](C(=O)N1CC[C@H]1C(=O)NCc1ccc(/C(N)=N\O)cc1)C1CCCCC1` [Ximelagatran] as the compound, how does the “Human Cmax Total” value ([1]; human therapeutic total plasma Cmax from literature, ref Sivapalasingam, S. & Steigbigel, N. (67)) read?
The value was 450 nM.

What about the “Chip MOS both donors” value (human Liver-Chip) of the same compound?
Its value is 30.

And the “Chip MOS donor 1” value (human Liver-Chip)?
The value was 30.

And the “Chip MOS donor 2” value (human Liver-Chip)?
Its value is 300.

And the “Liver-Chip toxicity determination, MOS-like figure against threshold value of 50” value (human Liver-Chip)?
The value was “only toxic in one of the donors tested”.

What about the “Spheroid MOS” value [2] of the same compound?
The value was 335.

And the Spheroid false negative [2]?
The Spheroid false negative was “Yes”.

What about the “Albumin IC50 Donor 1” value [3, 7] of the same compound?
Its value is 32 unbound human Cmax multiplier.

And the “Albumin IC50 Donor 2” value [3, 7]?
Its value is > 300 unbound human Cmax multiplier.

And the “Expected Fraction Unbound in Plasma” value ([4]; human plasma, no reference printed (-))?
Its value is 1.

What about the “ALT Donor 1” value [5, 8] of the same compound?
Its value is 30 unbound human Cmax multiplier.

What about the “ALT Donor 2” value [5, 8] of the same compound?
The value was > 300 unbound human Cmax multiplier.

Which “Chip MOS both donors” value (human Liver-Chip) does the source give for `Cc1cc2c(cc1CC(=O)c1sccc1S(=O)(=O)Nc1onc(C)c1Cl)OCO2` [Sitaxsentan] here?
Its value is 0.04.

What about the “Chip MOS donor 1” value (human Liver-Chip) of the same compound?
The value was 0.04.

What about the “Chip MOS donor 2” value (human Liver-Chip) of the same compound?
Its value is 1.6.

What about the “Garside DILI rank” value [6] of the same compound?
The value was 1.

What about the “Spheroid MOS” value [2] of the same compound?
Its value is 8.7.

And the Spheroid false negative [2]?
Its Spheroid false negative is “No”.

What about the “Albumin IC50 Donor 1” value [3, 9] of the same compound?
Its value is 4.4 multiples of the unbound human Cmax.

What about the “Albumin IC50 Donor 2” value [3, 9] of the same compound?
The value was 164 multiples of the unbound human Cmax.

And the “Albumin IC50 Donor 3” value [3, 9]?
Its value is >100 multiples of the unbound human Cmax.

What about the “ALT Donor 1” value [5, 10] of the same compound?
The value was 300 multiples of the unbound human Cmax.

What about the “ALT Donor 2” value [5, 10] of the same compound?
The value was 300 multiples of the unbound human Cmax.

And the “ALT Donor 3” value [5, 10]?
The value was 100 multiples of the unbound human Cmax.

Which “Human Cmax Total” value ([1]; human, total plasma Cmax, ref Proctor, W.R. et al. (29)) does the source give for `COC(c1ccccc1)(c1ccccc1)[C@H](Oc1nc(C)cc(C)n1)C(=O)O` [Ambrisentan] here?
The value was 790 nM.

And the “Chip MOS both donors” value (human Liver-Chip)?
Its value is greater than 10.

What about the “Chip MOS donor 1” value (human Liver-Chip) of the same compound?
The value was greater than 3.

What about the “Chip MOS donor 2” value (human Liver-Chip) of the same compound?
Its value is greater than 10.

What about the “Garside DILI rank” value [6] of the same compound?
The value was 5.

What about the “Spheroid MOS” value [2] of the same compound?
Its value is greater than 127.

And the Spheroid false negative [2]?
Its Spheroid false negative is “No”.

What about the “Albumin IC50 Donor 1” value [3, 9] of the same compound?
The value was >300 multiples of the unbound human Cmax.

What about the “Albumin IC50 Donor 2” value [3, 9] of the same compound?
Its value is >1000 multiples of the unbound human Cmax.

And the “Albumin IC50 Donor 3” value [3, 9]?
Its value is >300 multiples of the unbound human Cmax.

What about the “ALT Donor 1” value [5, 10] of the same compound?
Its value is >300 multiples of the unbound human Cmax.

And the “ALT Donor 2” value [5, 10]?
The value was >1000 multiples of the unbound human Cmax.

And the “ALT Donor 3” value [5, 10]?
The value was >300 multiples of the unbound human Cmax.

For `CC(C(=O)O)c1ccc2oc(-c3ccc(Cl)cc3)nc2c1` (stereo not drawn) [Benoxaprofen], which “Human Cmax Total” value ([1]; human, total plasma Cmax, ref Chatsiricharoenkul, S., Niyomnaitham, Pongnarin, P., Sathirakul, K. & Kongpatanakul, S. (66)) is on record?
The value was 149100 nM.

What about the “Chip MOS both donors” value (human Liver-Chip) of the same compound?
Its value is 0.001.

What about the “Chip MOS donor 1” value (human Liver-Chip) of the same compound?
The value was 0.001.

And the “Chip MOS donor 2” value (human Liver-Chip)?
Its value is 0.3.

And the “Liver-Chip toxicity determination, MOS-like figure against threshold value of 50” value (human Liver-Chip)?
The value was “hepatotoxic”.

And the “Garside DILI rank” value [6]?
Its value is 1.

And the “Spheroid MOS” value [2]?
The value was greater than 0.7.

And the Spheroid false negative [2]?
Its Spheroid false negative is “Yes”.

What about the “Expected Fraction Unbound in Plasma” value ([4]; plasma, ref Scott, L. J. (69)) of the same compound?
The value was 0.01.

And the “ALT Donor 1” value [5, 8]?
The value was > 100 unbound human Cmax multiplier.

And the “ALT Donor 2” value [5, 8]?
Its value is 100 unbound human Cmax multiplier.

Which “Chip MOS donor 1” value (human Liver-Chip) does the source give for `CCc1nn(CCCN2CCN(c3cccc(Cl)c3)CC2)c(=O)n1CCOc1ccccc1` [Nefazodone] here?
Its value is 1.4.

And the “Garside DILI rank” value [6]?
The value was 1.

What about the “Spheroid MOS” value [2] of the same compound?
The value was 6.8.

What about the Spheroid false negative [2] of the same compound?
Its Spheroid false negative is “No”.

And the “Albumin IC50 Donor 1” value [3, 9]?
The value was 140 multiples of the unbound human Cmax.

And the “ALT Donor 1” value [5, 10]?
Its value is 300 multiples of the unbound human Cmax.

Which “Human Cmax Total” value ([1]; human, total plasma Cmax, ref Vorrink, S. U., Zhou, Y., Ingelman- Sundberg, M. & Lauschke, V.M. (30)) does the source give for `O=c1[nH]c(=O)n([C@@H]2O[C@H](CO)[C@@H](O)[C@@H]2F)cc1I` [Fialuridine] here?
The value was 640 nM.

What about the “Chip MOS both donors” value (human Liver-Chip) of the same compound?
The value was 0.1.

And the “Chip MOS donor 1” value (human Liver-Chip)?
The value was 0.1.

What about the “Chip MOS donor 2” value (human Liver-Chip) of the same compound?
Its value is 2.8.

And the “Garside DILI rank” value [6]?
The value was 1.

And the “Spheroid MOS” value [2]?
The value was 12.3.

What about the Spheroid false negative [2] of the same compound?
The Spheroid false negative was “No”.

What about the “Albumin IC50 Donor 1” value [3, 9] of the same compound?
The value was <0.1 multiples of the unbound human Cmax.

And the “Albumin IC50 Donor 2” value [3, 9]?
Its value is <1 multiples of the unbound human Cmax.

And the “ALT Donor 1” value [5, 10]?
Its value is >300 multiples of the unbound human Cmax.

What about the “ALT Donor 2” value [5, 10] of the same compound?
Its value is >300 multiples of the unbound human Cmax.

Which results are given for `Cc1cc2c(s1)Nc1ccccc1N=C2N1CCN(C)CC1` [Olanzapine]?
Human Cmax Total ([1]; human, total plasma Cmax, ref Brunton, L. L., Hilal-Dandan, R. & Knollmann, B. C. (72)): 0.09 nM; Chip MOS both donors (human Liver-Chip): >20; Chip MOS donor 1 (human Liver-Chip): >20; Chip MOS donor 2 (human Liver-Chip): >2; Garside DILI rank [6]: 5; Spheroid false negative [2]: No; Expected Fraction Unbound in Plasma ([4]; plasma, reference data from the literature, no reference): 0.07; ALT Donor 1 [5, 10]: >300 multiples of the unbound human Cmax; ALT Donor 2 [5, 10]: >300 multiples of the unbound human Cmax; ALT Donor 3 [5, 10]: >300 multiples of the unbound human Cmax

For `CCc1ccc(CCOc2ccc(CC3SC(=O)NC3=O)cc2)nc1` (stereo not drawn) [Pioglitazone], which “Human Cmax Total” value ([1]; human, total plasma Cmax, ref Xu, J. J. et al. (36)) is on record?
The value was 3000 nM.

And the “Chip MOS both donors” value (human Liver-Chip)?
Its value is 2.8.

And the “Chip MOS donor 1” value (human Liver-Chip)?
Its value is 2.8.

And the “Chip MOS donor 2” value (human Liver-Chip)?
The value was greater than 2.8.

What about the “Garside DILI rank” value [6] of the same compound?
The value was 3.

And the “Spheroid MOS” value [2]?
The value was greater than 5.3.

What about the Spheroid false negative [2] of the same compound?
Its Spheroid false negative is “Yes”.

What about the “Albumin IC50 Donor 1” value [3, 9] of the same compound?
The value was 277 multiples of the unbound human Cmax.

And the “Albumin IC50 Donor 2” value [3, 9]?
The value was >300 multiples of the unbound human Cmax.

What about the “ALT Donor 1” value [5, 10] of the same compound?
The value was >300 multiples of the unbound human Cmax.

And the “ALT Donor 2” value [5, 10]?
Its value is >300 multiples of the unbound human Cmax.

Which “Human Cmax Total” value ([1]; human, total plasma Cmax, ref Lombardo, F., Berellini, G. & Obach, R. S. (70)) does the source give for `CCN(CC)C(=O)/C(C#N)=C/c1cc(O)c(O)c([N+](=O)[O-])c1` [Entacapone] here?
Its value is 3300 nM.

What about the “Chip MOS donor 1” value (human Liver-Chip) of the same compound?
The value was greater than 6.

What about the “Garside DILI rank” value [6] of the same compound?
Its value is 4.

And the “Spheroid MOS” value [2]?
Its value is 46.5.

What about the Spheroid false negative [2] of the same compound?
The Spheroid false negative was “No”.

And the “Albumin IC50 Donor 1” value [3, 9]?
The value was >300 multiples of the unbound human Cmax.

What about the “ALT Donor 1” value [5, 10] of the same compound?
The value was >300 multiples of the unbound human Cmax.
